# Experimental data from publication PMC7925357 (European journal of medicinal chemistry, 2020).
# Like-named read-outs stand apart in the source and are kept apart here.
# How the values were obtained:
# hM3Dq [1] = target: T1, hM3Dq (Homo sapiens, UniProt P20309, A239G/Y149C); details: read-out: hM3Dq EC50; DREADD agonist; cited from earlier work
# hM3 = details: read-out: hM3 EC50; selectivity versus native hM3; cited from earlier work
# hM3Dq [2] = target: T1, hM3Dq; assay: PET imaging with [18F]7b in transgenic mice expressing hM3Dq; assay type: in vivo, mouse
# hM3Dq [3] = target: T1, hM3Dq; assay: [3H]CLZ competition binding, membranes of HEK293 cells transfected with hM3Dq
# hM4Di [4] = target: T2, hM4Di (Homo sapiens, UniProt P08173, A203G/Y113C); assay: [3H]CLZ competition binding, membranes of HEK293 cells transfected with hM4Di
# T2 sequence (P08173 1-479 Y113C/A203G): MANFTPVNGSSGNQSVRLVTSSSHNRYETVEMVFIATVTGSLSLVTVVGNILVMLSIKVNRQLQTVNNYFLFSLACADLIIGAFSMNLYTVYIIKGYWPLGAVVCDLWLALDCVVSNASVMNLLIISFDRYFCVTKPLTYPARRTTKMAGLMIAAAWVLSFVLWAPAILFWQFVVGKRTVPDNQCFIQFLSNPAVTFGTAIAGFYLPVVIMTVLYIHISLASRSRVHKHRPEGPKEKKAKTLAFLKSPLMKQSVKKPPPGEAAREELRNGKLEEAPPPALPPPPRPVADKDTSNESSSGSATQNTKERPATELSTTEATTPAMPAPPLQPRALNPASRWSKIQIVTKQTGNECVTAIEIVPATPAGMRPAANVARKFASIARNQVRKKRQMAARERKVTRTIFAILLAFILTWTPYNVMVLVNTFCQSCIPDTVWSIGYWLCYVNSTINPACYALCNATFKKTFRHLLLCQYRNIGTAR
# hM3Dq [5] = target: T1, hM3Dq; details: read-out: Ki, nM hM3Dq; printed without SD; cited from earlier work
# hM4Di [6] = target: T2, hM4Di; details: read-out: Ki, nM hM4Di; printed without SD; cited from earlier work
# hM3Dq [7] = target: T1, hM3Dq; details: hM3Dq Tg mice; cited from earlier work
# wild-type mouse brain = assay: PET imaging with [18F]7b in wild-type mouse; details: wild-type mouse lacking DREADD expression
# [8] = at 50–60 min after injection, transgenic hM3Dq mice
# [9] = baseline, cerebellum as reference tissue
# T1 sequence (P20309 whole entry Y149C/A239G): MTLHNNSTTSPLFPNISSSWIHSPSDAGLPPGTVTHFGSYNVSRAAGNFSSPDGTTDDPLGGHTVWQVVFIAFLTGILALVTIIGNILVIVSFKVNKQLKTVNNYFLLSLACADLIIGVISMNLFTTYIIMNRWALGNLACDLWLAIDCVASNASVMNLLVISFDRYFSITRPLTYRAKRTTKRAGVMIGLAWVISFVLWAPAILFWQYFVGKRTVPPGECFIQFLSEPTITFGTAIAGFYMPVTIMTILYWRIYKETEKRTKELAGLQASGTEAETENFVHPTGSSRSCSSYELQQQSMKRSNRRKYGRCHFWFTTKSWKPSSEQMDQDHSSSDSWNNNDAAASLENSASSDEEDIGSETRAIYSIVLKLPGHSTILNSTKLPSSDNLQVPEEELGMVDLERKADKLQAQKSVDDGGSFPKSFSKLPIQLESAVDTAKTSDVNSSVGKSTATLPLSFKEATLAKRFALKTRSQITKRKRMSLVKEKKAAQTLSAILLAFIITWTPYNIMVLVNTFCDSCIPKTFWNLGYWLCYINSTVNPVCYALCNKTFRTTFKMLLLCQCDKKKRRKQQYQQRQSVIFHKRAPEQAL
structure (smiles),measurement,setting,value
"CCN1CCN(C2=Nc3cc(Cl)ccc3Nc3ccccc32)CC1 [Compound 1, 8-chloro-11-(4-ethylpiperazin-1-yl)-5H-dibenzo[b,e][1,4]diazepine]",EC50,hM3Dq [1],1.3 nM
same,EC50,hM3,> 30 µM
"CCN1CCN(C2=Nc3cc(Cl)ccc3Nc3c(F)cccc32)CC1 [Compound 7d, 8-Chloro-11-(4-ethylpiperazin-1-yl)-4-fluoro-5H-dibenzo[b,e][1,4]diazepine]",blocking effect on [18F]7b in the cerebellum,"hM3Dq [2]; 7d as blocker, dose escalation",insignificant
same,blocking of [18F]7b binding potential in the cortex versus baseline,"hM3Dq [2]; 7d as blocker, dose escalation up to 0.5 mg/kg",significant only at the highest dose of blocker
"CCN1CCN(C2=Nc3cc(Cl)ccc3Nc3c(F)cc(F)cc32)CC1 [Compound 7h, 8-Chloro-11-(4-ethylpiperazin-1-yl)-2,4-difluoro-5H-dibenzo[b,e][1,4]diazepine]",Ki,hM3Dq [3],8.1 ± 0.9 nM
same,Ki,hM4Di [4],18.1 ± 5.4 nM
"CN1CCN(C2=Nc3ccccc3Nc3ccccc32)CC1 [DCZ, deschloroclozapine]",Ki,hM3Dq [5],6.3 nM
same,Ki,hM4Di [6],4.2 nM
"[11CH3]N1CCN(C2=Nc3ccccc3Nc3ccccc32)CC1 [[^11C]DCZ, [^11C]deschloroclozapine]",STR/CB ratio value,hM3Dq [7],2.7
"CCN1CCN(C2=Nc3ccccc3Nc3ccc([18F])cc32)CC1 [[^18F]7b, 11-(4-Ethylpiperazin-1-yl)-2-[^18F]fluoro-5H-dibenzo[b,e][1,4]diazepine]","maximum ratio of tissue to cerebellum, cortex",hM3Dq [2]; [8],1.8
same,"maximum ratio of tissue to cerebellum, striatum",hM3Dq [2]; [8],3.0
same,"binding potential BPND, cortex",hM3Dq [2]; [9],0.6
same,"binding potential BPND, striatum",hM3Dq [2]; [9],1.6
same,highest accumulation of radioactivity in the striatum (SUV),"hM3Dq [2]; baseline, striatum, mean ± SD of 3, transgenic hM3Dq mice",1.93 ± 0.33 SUV
same,accumulation of radioactivity in the brain,wild-type mouse brain,low accumulation of radioactivity in the brain
